Assays:
NK1 receptor = NK1 receptor (Oryctolagus cuniculus, UniProt G1SEI7); test: Rabbit Pulmonary Artery: NK1 in vitro functional assay (Test C); type: cell-based; conditions: antagonism of agonist ASMSP, -log molar apparent dissociation constant KB
Protocol: Rabbit Pulmonary Artery: NK1 in vitro functional assay (Test C) […] Male New Zealand white rabbits are euthanized via i.v. injection into the ear vein with 60 mg/kg Nembutal (50 mg/mL). Preceding the Nembutal into the vein is Heparin (1000 units/mL) at 0.0025 mL/kg for anticoagulant purposes. The chest cavity is opened from the top of the rib cage to the sternum and the heart, lungs and part of the trachea are removed. The pulmonary arteries are isolated from the rest of the tissues and cut in half to serve as pairs. […] Responses are measured on a Grass polygraph via Grass FT-03 transducers. […] Percent inhibition is determined when a tested compound produces a statistically significant (p < 0.05) reduction of the total relaxation which is calculated using the total relaxation of the Papaverine as 100%. Potencies of the compounds are determined by calculating the apparent dissociation constants (KB) for each concentration tested using the standard equation: KB= [antagonist]/ (dose ratio - 1) [formula] where dose ratio = antilog[(agonist -log molar EC50 without compound) - (-log molar EC50 with compound)]. The KB values may be converted to the negative logarithms and expressed as -log molar KB (i.e. pKB). […] The EC50 values are converted to negative logarithms and expressed as -log molar EC50.

NK2 receptor = biological target: T1, NK2 receptor (Oryctolagus cuniculus, UniProt P79218); test: Rabbit Pulmonary Artery: NK2 in vitro functional assay (Test D); type: cell-based; conditions: antagonism of agonist BANK, -log molar apparent dissociation constant KB, read-out: NK2 pKb (Test D) (converted)
T1 construct: The pulmonary arteries are isolated from the rest of the tissues, then rubbed over an intimal surface to remove the endothelium; from tissue; host or cells: rabbit pulmonary artery rings (endothelium removed)
T1 sequence (P79218 1-384): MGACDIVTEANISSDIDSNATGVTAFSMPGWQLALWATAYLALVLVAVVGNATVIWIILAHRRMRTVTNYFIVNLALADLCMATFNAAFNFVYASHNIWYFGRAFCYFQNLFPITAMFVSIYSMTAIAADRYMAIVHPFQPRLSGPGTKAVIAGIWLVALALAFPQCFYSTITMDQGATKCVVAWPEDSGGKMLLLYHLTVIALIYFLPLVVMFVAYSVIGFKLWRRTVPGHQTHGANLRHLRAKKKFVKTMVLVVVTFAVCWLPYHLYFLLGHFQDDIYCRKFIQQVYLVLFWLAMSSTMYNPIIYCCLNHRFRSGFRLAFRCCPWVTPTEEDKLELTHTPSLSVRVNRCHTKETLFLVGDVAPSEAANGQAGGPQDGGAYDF
Protocol: The ability of a compound of the invention to antagonize the action of the agonist [β-ala8] […] Male New Zealand white rabbits are euthanized via i.v. injection into the ear vein with 60 mg/kg Nembutal (50 mg/mL). Preceding the Nembutal into the vein is Heparin (1000 units/mL) at 0.0025 mL/kg for anticoagulant purposes. The chest cavity is opened from the top of the rib cage to the sternum and a small incision is made into the heart so that the left and right pulmonary arteries can be cannulated with polyethylene tubing (PE260 and PE190 respectively). […] Responses are measured on a Grass polygraph via Grass FT-03 transducers. […]
Percent inhibition is determined when a tested compound produces a statistically significant (p < 0.05) reduction of the total contraction which is calculated using the total contraction of the BaCl2 as 100%. Potencies of the compounds are determined by calculating the apparent dissociation constants (KB) for each concentration tested using the standard equation: KB = [antagonist]/ (dose ratio - 1) [formula] where dose ratio = antilog[(agonist -log molar EC50 without compound) - (-log molar EC50 with compound)]. The KB values may be converted to the negative logarithms and expressed as -log molar KB (i.e. pKB). […] The EC50 values are converted to negative logarithms and expressed as -log molar EC50.

NK1 receptor, sequence (G1SEI7 1-407): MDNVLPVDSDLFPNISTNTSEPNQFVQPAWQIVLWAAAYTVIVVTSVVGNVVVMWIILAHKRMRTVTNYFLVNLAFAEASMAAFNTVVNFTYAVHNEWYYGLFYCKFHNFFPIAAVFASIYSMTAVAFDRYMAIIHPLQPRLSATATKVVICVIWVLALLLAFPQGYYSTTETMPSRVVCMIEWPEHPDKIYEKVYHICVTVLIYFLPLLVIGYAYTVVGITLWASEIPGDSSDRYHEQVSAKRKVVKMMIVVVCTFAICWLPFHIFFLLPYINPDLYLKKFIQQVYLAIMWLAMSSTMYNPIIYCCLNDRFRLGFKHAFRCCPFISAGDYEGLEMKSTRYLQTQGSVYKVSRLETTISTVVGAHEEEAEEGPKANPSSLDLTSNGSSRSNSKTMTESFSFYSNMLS

| SMILES | NK1 pKb (Test C) (NK1 receptor) | Kb (NK2 receptor) [nM] |
| --- | --- | --- |
| CCc1c(C#N)cc2ccccc2c1C(=O)N(C)C[C@@H](CCN1CCC(c2ccccc2[S@+](C)[O-])CC1)c1ccc(Cl)c(Cl)c1.O=C(O)CC(O)(CC(=O)O)C(=O)O [Example 18, N-[(S)-2-(3,4-Dichlorophenyl)-4-[4-[(S)-2-methylsulfinylphenyl]-1-piperidinyl]butyl]-N-methyl-3-cyano-2-ethyl-1-naphthamide citrate] | 9.6 | 50.1 |
| COc1c(C#N)cc2ccccc2c1C(=O)N(C)C[C@@H](CCN1CCC(c2ccccc2[S@+](C)[O-])CC1)c1ccc(Cl)c(Cl)c1.O=C(O)CC(O)(CC(=O)O)C(=O)O [Example 1, N-[(S)-2-(3,4-Dichlorophenyl)-4-[4-[(S)-2-methylsulfinylphenyl]-1-piperidinyl]butyl]-N-methyl-2-methoxy-3-cyano-1-naphthamide citrate] | 9.5 | 50.1 |
